Patent publication US10301314B2, “Compounds and methods for the prevention and treatment of tumor metastasis and tumorigenesis” (The United States of America, as represented by the …, priority 2011, dated 2019)

Assays:
[1] = test system: PC3M cell line that stably expresses GFP-PTB to mark PNCs; assay: High content assay for PNC detection (reduction of PNC prevalence); assay type: cell-based, human; conditions: Table 4, PC3M GFP-PTB cells, 16 hrs incubation; for IC50: Homo sapiens, PC-3M
Description: The quantitative output for this assay is the reduction of PNC prevalence. The PNC can be detected in living cells by the expression of a green fluorescent protein (GFP) tagged to the PNC localized protein, PTB. A PC3M cell line was used that stably expresses GFP-PTB to mark PNCs. This method eliminates the need for immunofluorescent staining.
The IN Cell Analyzer 1000 automated fluorescent imaging system (GE Healthcare, Piscataway, N.J.) was used for automated image acquisition. […] The instrument acquired images of each well in a 1536-well plate with a laser-based autofocus system. To score PNC prevalence in a high-content throughput, the Multi-Target Analysis (MTA) algorithm (GE Healthcare, Investigator v3.5) to identify individual cells and granules (PNCs) within these cells was used. The nucleus was segmented via a region growing method (50 μm^2 minimum area) with light shading and noise removal to allow “touching” nuclei to be separated. Granules in the nucleus (PNCs) were segmented using a multiscale top hat method, which measures granules of 1 to 2 μm in size and used a smart masking method to identify the boundaries of each segmented granule. The algorithm was optimized and validated using positive and negative controls (50 μM camptothecin and DMSO, respectively). In particular, the MTA algorithm allows for the identification of multiple subcellular compartments and organelles (or granules) within those compartments. In this instance, the algorithm's capability to identify objects within the same color channel that only differ in size or fluorescent intensity was utilized. Also, the algorithm allows for building complex hierarchical classification systems, using output measures within the algorithm to filter and define subpopulations. For this particular assay, PNC-positive cells were scored when 1 to 3 PNC granules were detected per nucleus. Cells that contained 0 granules were scored as PNC negative, and cells with >3 granules were assumed to be false positives (very few cells have more than 3 PNCs in one focus plane), and were also scored as PNC negative.

[2] = test system: PC3M reporter cell line stably expressing the PTB-GFP; assay: ATP quantitation assay (ATPLite); assay type: cell-based, human; conditions: Homo sapiens, PC-3M, Table 4, PC3M cells, 24 hrs incubation
Description: This follow-up assay was conducted to measure the effect of compounds on cell health by measuring ATP levels (ATPLite™). ATPLite™ is an ATP monitoring system based on firefly (Photinus pyralis) luciferase. The level of ATP in a metabolically active cell is a general marker for its viability. ATP levels are often reduced during necrosis or apoptosis. In this assay, the luciferase enzyme catalyzes the conversion of the added substrate D-luciferin to oxyluciferin and light with ATP. Thus, the emitted light is proportional to the ATP concentration. For this assay, the highly metastatic PC3M reporter cell line stably expressing the PTB-GFP was provided by Professor Sui Huang of Northwestern University. The media and cell culture reagents were purchased from Invitrogen (Carlsbad, Calif.), ATPLite™ came from PerkinElmer.

| SMILES | IC50 [1] [µM] | IC50 [2] [µM] | PNC IC50(μM) [1] |
| --- | --- | --- | --- |
| N=c1c2c(-c3ccccc3)c(-c3ccccc3)n(CCc3ccccc3)c2ncn1CCO [Compound 5] | 0.187 | 19.2 | – |
| N=c1c2c(-c3ccccc3)c(-c3ccccc3)n(Cc3ccco3)c2ncn1CCCO [Compound 11] | 3.97 | 64.6 | – |
| N=c1c2c(-c3ccccc3)c(-c3ccccc3)n(Cc3ccccc3)c2ncn1CCCCO [Compound 12] | – | 24.1 | inactive |
| N=c1c2c(-c3ccccc3)c(-c3ccccc3)n(CCc3ccccc3)c2ncn1CCCCCO [Compound 16] | 0.59 | 38.3 | – |
| CN(C)CCCn1cnc2c(c(-c3ccccc3)c(-c3ccccc3)n2Cc2ccccc2)c1=N [Compound 21] | 7.43 | 24.1 | – |
| CN(C)CCCn1cnc2c(c(-c3ccccc3)c(-c3ccccc3)n2CCc2ccccc2)c1=N [Compound 22] | 7.43 | 24.1 | – |
| N=c1c2c(-c3ccccc3)c(-c3ccccc3)n(Cc3ccccc3)c2ncn1C1CCN(Cc2ccccc2)CC1 [Compound 23] | 4.69 | 121 | – |
| COCCn1cnc2c(c(-c3ccccc3)c(-c3ccccc3)n2Cc2ccccc2)c1=N [Compound 25] | 1.87 | 60.7 | – |
| COCCn1cnc2c(c(-c3ccccc3)c(-c3ccccc3)n2CCc2ccccc2)c1=N [Compound 26] | 3.72 | 60.7 | – |
| COC(Cn1cnc2c(c(-c3ccccc3)c(-c3ccccc3)n2CCc2ccccc2)c1=N)OC [Compound 29] | 23.5 | 27.1 | – |
| CCOC(CCCn1cnc2c(c(-c3ccccc3)c(-c3ccccc3)n2CCc2ccccc2)c1=N)OCC [Compound 32] | 18.7 | 24.1 | – |
| CCCCn1cnc2c(c(-c3ccccc3)c(-c3ccccc3)n2Cc2ccco2)c1=N [Compound 34] | 1.25 | 20.4 | – |
| CC(C)CCn1cnc2c(c(-c3ccccc3)c(-c3ccccc3)n2Cc2ccco2)c1=N [Compound 35] | – | 19.9 | Inactive |
| N=c1c2c(-c3ccccc3)c(-c3ccccc3)n(Cc3ccco3)c2ncn1Cc1ccco1 [Compound 43] | 9.96 | 20.4 | – |
| N=c1c2c(-c3ccccc3)c(-c3ccccc3)n(Cc3ccccc3)c2ncn1Cc1ccc2c(c1)OCO2 [Compound 45] | 9.35 | 24.1 | – |
| COc1ccc(CCn2cnc3c(c(-c4ccccc4)c(-c4ccccc4)n3Cc3ccccc3)c2=N)cc1OC [Compound 46] | 14.8 | 24.1 | – |
| COC(=O)c1cccc(Cn2cnc3c(c(-c4ccccc4)c(-c4ccccc4)n3CCc3ccccc3)c2=N)c1 [Compound 53] | 29.6 | 24.1 | – |
| N=c1c2c(-c3ccccc3)c(-c3ccccc3)n(CC3CCCCC3)c2ncn1C1CCOCC1 [Compound 60] | 0.118 | 24.1 | – |
| N=c1c2c(-c3ccccc3)c(-c3ccccc3)n(Cc3ccccc3)c2ncn1CCC1CCC(O)CC1 (centres unmarked) [Compound 61] | 0.118 | 24.1 | – |
| N=c1c2c(-c3ccccc3)c(-c3ccccc3)n(CC3CC3)c2ncn1C1CCOCC1 [Compound 64] | 0.187 | 38.3 | – |
| CO[C@H]1CC[C@H](n2cnc3c(c(-c4ccccc4)c(-c4ccccc4)n3CCc3ccccc3)c2=N)CC1 [Compound 65] | 0.235 | 19.2 | – |

The remaining molecules from weak to strong by IC50 [2], led by results:

| IC50 [1] [µM] | IC50 [2] [µM] | PNC IC50(μM) [1] | SMILES |
| --- | --- | --- | --- |
| 0.469 | 96.1 | – | CN(C)CCn1cnc2c(c(-c3ccccc3)c(-c3ccccc3)n2CCc2ccccc2)c1=N [Compound 20] |
| 0.935 | 96.1 | – | N=c1c2c(-c3ccccc3)c(-c3ccccc3)n(Cc3ccccc3)c2ncn1CC1CCCO1 (centres unmarked) [Compound 38] |
| 0.059 | 96.1 | – | N=c1c2c(-c3ccccc3)c(-c3ccccc3)n(Cc3ccc(S(N)(=O)=O)cc3)c2ncn1C1CCOCC1 [Compound 57] |
| 0.118 | 76.4 | – | N=c1c2c(-c3ccccc3)c(-c3ccccc3)n(Cc3ccccc3)c2ncn1CCO [Compound 4] |
| – | 76.4 | inactive | N=c1c2c(-c3ccccc3)c(-c3ccccc3)n(Cc3ccccc3)c2ncn1CCN [Compound 18] |
| 1.48 | 48.2 | – | COc1ccc(Cn2c(-c3ccccc3)c(-c3ccccc3)c3c(=N)n(CCO)cnc32)cc1 [Compound 6] |
| 2.96 | 48.2 | – | CCOC(CCCn1cnc2c(c(-c3ccccc3)c(-c3ccccc3)n2Cc2ccc(OC)cc2)c1=N)OCC [Compound 33] |
| 4.69 | 48.2 | – | N=c1c2c(-c3ccccc3)c(-c3ccccc3)n(CCc3ccccc3)c2ncn1CC1CCCO1 (centres unmarked) [Compound 39] |
| 5.9 | 38.3 | – | COC(Cn1cnc2c(c(-c3ccccc3)c(-c3ccccc3)n2Cc2ccccc2)c1=N)OC |
| 5.9 | 38.3 | – | COc1ccc(Cn2c(-c3ccccc3)c(-c3ccccc3)c3c(=N)n(CC4CCCO4)cnc32)cc1 (centres unmarked) [Compound 40] |
| – | 32.4 | inactive | N=c1c2c(-c3ccccc3)c(-c3ccccc3)n(Cc3ccco3)c2ncn1CCN1CCOCC1 [Compound 50] |
| 1.18 | 30.4 | – | COc1ccc(Cn2c(-c3ccccc3)c(-c3ccccc3)c3c(=N)n(CCCCO)cnc32)cc1 [Compound 17] |
| 4.69 | 30.4 | – | N=c1c2c(-c3ccccc3)c(-c3ccccc3)n(CCc3ccccc3)c2ncn1[C@H](CO)Cc1ccccc1 [Compound 48] |
| 1.99 | 25.7 | – | N=c1c2c(-c3ccccc3)c(-c3ccccc3)n(Cc3ccccc3)c2ncn1CCCn1ccnc1 [Compound 36] |
| 1.18 | 24.1 | – | COc1ccc(Cn2c(-c3ccccc3)c(-c3ccccc3)c3c(=N)n(CCCCCO)cnc32)cc1 [Compound 14] |
| 0.372 | 24.1 | – | N=c1c2c(-c3ccccc3)c(-c3ccccc3)n(Cc3ccccc3)c2ncn1CCCCCO [Compound 15] |

| IC50 [1] [µM] | IC50 [2] [µM] | PNC IC50(μM) [1] | SMILES |
| --- | --- | --- | --- |
| 0.935 | 24.1 | – | CN(C)CCn1cnc2c(c(-c3ccccc3)c(-c3ccccc3)n2Cc2ccccc2)c1=N [Compound 19] |
| 1.87 | 24.1 | – | N=c1c2c(-c3ccccc3)c(-c3ccccc3)n(CCc3ccccc3)c2ncn1C1CCN(Cc2ccccc2)CC1 [Compound 24] |
| 1.18 | 24.1 | – | COCCn1cnc2c(c(-c3ccccc3)c(-c3ccccc3)n2Cc2ccc(OC)cc2)c1=N [Compound 27] |
| 5.9 | 24.1 | – | COc1ccc(Cn2c(-c3ccccc3)c(-c3ccccc3)c3c(=N)n(CC(OC)OC)cnc32)cc1 [Compound 30] |
| 2.96 | 24.1 | – | CCOC(CCCn1cnc2c(c(-c3ccccc3)c(-c3ccccc3)n2Cc2ccccc2)c1=N)OCC [Compound 31] |
| 0.118 | 24.1 | – | COc1ccc(Cn2c(-c3ccccc3)c(-c3ccccc3)c3c(=N)n([C@H]4CC[C@H](O)CC4)cnc32)cc1 [Compound 58] |
| 0.118 | 24.1 | – | COc1ccc(Cn2c(-c3ccccc3)c(-c3ccccc3)c3c(=N)n(C4CCOCC4)cnc32)cc1 [Compound 59] |
| 0.148 | 24.1 | – | N=c1c2c(-c3ccccc3)c(-c3ccccc3)n(CCc3ccccc3)c2ncn1C[C@H]1CCCC[C@@H]1O [Compound 62] |
| 0.628 | 20.4 | – | N=c1c2c(-c3ccccc3)c(-c3ccccc3)n(Cc3ccco3)c2ncn1CCO [Compound 7] |
| 15.8 | 19.9 | – | N=c1c2c(-c3ccccc3)c(-c3ccccc3)n(Cc3ccccc3)c2ncn1Cc1ccccc1 [Compound 44] |
| 0.148 | 19.2 | – | N=c1c2c(-c3ccccc3)c(-c3ccccc3)n(CCc3ccccc3)c2ncn1CCCO [Compound 9] |
| 0.009 | 19.2 | – | CO[C@H]1CC[C@H](n2cnc3c(c(-c4ccccc4)c(-c4ccccc4)n3Cc3ccccc3)c2=N)CC1 [Compound 56] |
| 0.148 | 19.2 | – | N=c1c2c(-c3ccccc3)c(-c3ccccc3)n(Cc3ccccc3)c2ncn1C1CCCC[C@H]1O (some centres unmarked) [Compound 63] |
| 0.235 | 15.2 | – | N=c1c2c(-c3ccccc3)c(-c3ccccc3)n(CCc3ccccc3)c2ncn1CCCCO [Compound 13] |
| 0.047 | 9.61 | – | N=c1c2c(-c3ccccc3)c(-c3ccccc3)n(CCc3ccccc3)c2ncn1[C@H]1CC[C@H](O)CC1 [Compound 3] |
